Assay: Autohydrolytic cascade reaction
Assay type: physicochemical
Conditions: EDTA at 10–200 μM; Fig. S9E

O=C(O)CN(CCN(CC(=O)O)CC(=O)O)CC(=O)O [EDTA]
effect on the ACR: inhibitory effect

From PMC10189894 (Chemical Science, 2023)
